Reference: patent US20040106802A1, “Novel compounds and therapeutic uses thereof” (TORRENT PHARMACEUTICALS LTD., priority 2002, published 2004)
Several values for one entry are separate records, joined by “and”; a condition that tells them apart may be missing. Equal entries are not always repeated. Structures can show the parent of a compound that is named as a salt. Where two headings read alike, the source gives them in different places. One block for each molecule: values may come before it.

What was measured:
Porcine DPP-IV = molecular target: T1, Porcine DPP-IV (Sus scrofa, UniProt P22411); experiment: Assay of DPP-IV enzyme inhibitory activity (spectrophotometric, Gly-Pro-pNA cleavage); format: biochemical; conditions: Porcine DPP-IV, Gly-Pro-pNA substrate, 30° C., mean ± SD of three experiments except compound Nos. 133 & 139, read-out: IC50 (μM) Mean ± SD, inhibitory activity on DPP-IV enzyme activity
T1 construct: purchased Sigma-Aldrich Germany
T1 sequence (P22411 whole entry): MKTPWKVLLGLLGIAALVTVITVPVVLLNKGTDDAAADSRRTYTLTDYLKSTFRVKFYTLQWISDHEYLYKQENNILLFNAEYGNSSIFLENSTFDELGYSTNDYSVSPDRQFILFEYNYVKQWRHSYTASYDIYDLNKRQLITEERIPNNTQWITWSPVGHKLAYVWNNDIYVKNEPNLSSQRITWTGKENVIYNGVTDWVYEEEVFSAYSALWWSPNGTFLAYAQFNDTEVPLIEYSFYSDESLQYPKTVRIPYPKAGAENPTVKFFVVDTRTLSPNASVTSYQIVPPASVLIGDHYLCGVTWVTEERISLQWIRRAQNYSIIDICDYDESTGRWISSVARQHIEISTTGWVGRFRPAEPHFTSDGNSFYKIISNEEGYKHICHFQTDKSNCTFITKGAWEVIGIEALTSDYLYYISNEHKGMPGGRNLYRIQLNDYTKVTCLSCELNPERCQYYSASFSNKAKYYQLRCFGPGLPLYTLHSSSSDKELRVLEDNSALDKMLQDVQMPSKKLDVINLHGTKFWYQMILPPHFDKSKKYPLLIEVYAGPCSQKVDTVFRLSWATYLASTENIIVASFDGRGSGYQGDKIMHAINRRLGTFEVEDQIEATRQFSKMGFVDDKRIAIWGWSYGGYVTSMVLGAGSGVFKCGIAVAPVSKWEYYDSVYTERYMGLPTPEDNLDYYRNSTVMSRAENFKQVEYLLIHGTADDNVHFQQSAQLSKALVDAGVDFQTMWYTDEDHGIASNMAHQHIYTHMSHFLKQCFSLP

[1] = tested on: STZ induced diabetic rats; experiment: In vivo oral glucose tolerance study in nSTZ induced diabetic rats, i.v. drug; conditions: 8 mg/ml/kg i.v.
Experimental: In Vivo Oral Glucose Tolerance Studies
The anti-hyperglycemic effect of compound no. 95 (8 mg/ml/kg, i.v) after an oral glucose load of 1 gm/kg was studied in STZ induced diabetic rats (modified method of Balkan et al 1999).
Animals: Male STZ induced diabetic rats aged 10-12 weeks and weighing between 200-250 gm were used for the study. These rats were treated with streptozotocin administered intraperitoneally on the day of birth at a dose of 90 mg/kg. They were maintained under standard conditions till the age of 10-12 weeks when they were used for the study.
Materials: Glucose solution (1 gm/4 ml of saline), Diethyl ether compound no. 95 (8 mg/ml/kg), vehicle (1 ml/kg), Heparinized saline (100 IU/ml), glucometer and strips
Method: Animals were divided into two groups
Group I: 8 hours fasted rats were treated with compound no. 95 vehicle (1 ml/kg, i.v.) 5 min before administration of glucose load.
Group II: 8 hours fasted rats were treated with compound no. 95 (8 mg/ml/kg, i.v) 5 min before administration of glucose load.
In both groups, blood samples were taken before administration of vehicle/compound no. 95 and glucose load for blood glucose estimation. Blood glucose level before administration of compound no. 95 or its vehicle was considered as −5 min reading. Blood glucose level before administration of glucose was considered as 0 min reading.
After 10, 20, 30, 45, 60, 75, 90, 120, 150 and 180 min of glucose administration, blood glucose level was estimated by the glucose oxidase method using a LifeScan glucometer (Ca, USA). Blood glucose level at various time points was subtracted from the basal (0 min) reading. This was done to avoid changes in AUC because of variation in basal glucose level. The glucose excursion at various time points was plotted against time and the AUC was calculated.
The activity of compound no. 95 was expressed as % reduction in AUC as compared with that of its vehicle.

[2] = In-vitro free radical scavenging activity using DPPH free radical; conditions: 30° C., 30 minutes, 515 nm
Method in brief: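 Compound solutions in methanol (10, 1, 0.5, 0.25 and 0.125 mM before a 1:10 addition) were mixed with 10^−4M methanolic DPPH and held 30 min at 30 °C. Absorbance was read at 515 nm against a methanol blank. % antioxidant activity = 100 − (OD test/OD control × 100).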

zucker fatty rats = conditions: cited from earlier work
DPP-IV = conditions: in vivo; cited from earlier work
nOSTZ diabetic rats = experiment: Oral glucose tolerance test in neonatal streptozotocin-induced (nOSTZ) diabetic rats, oral drug; format: in vivo, Wistar rats; conditions: 22 mg/kg oral; for percent change in blood glucose from basal glucose level / peak glucose levels (% from basal level): glucose load 1 g/kg; for peak glucose levels (% from basal level): significantly lower than vehicle (157.07±14.17%); for glucose tolerance (in words): nOSTZ rats
From the text: Effect of Compound no. 140 and Compound no. 142 on Oral Glucose Tolerance in Neonatel Streptozotocin-Induced (nO STZ) Diabetic Rats
Principle of Glucose Estimation by Glucometer (One Touch, Lifescan, USA)
Glucose and oxygen react in the presence of glucose oxidase yielding gluconic acid and hydrogen peroxide. Hydrogen peroxide subsequently oxidizes the dyes in a reaction mediated by Peroxidase producing a blue colored form of the dyes (Marks and Dawson, 1965). The intensity of the blue color is proportional to the glucose concentration in the sample.
Wistar rats were made type 2 diabetic by injecting streptozotocin (STZ) at the dose of 90 mg/kg intraperitoneally on the day of birth (nOSTZ) to male pups (Portha et al, 2001). Animals showing overnight fasted blood glucose levels between 7-10 mM at the age of 10-12 weeks were used for the study. On the day of the experiment, animals were fasted overnight with free access to water.
Oral Glucose Tolerance Test (OGTT) (Pospisilik et al, 2002)
External jugular vein of overnight fasted nOSTZ rats was cannulated using polyethylene cannula with heparinized (100 IU/ml) saline under ether anesthesia and exteriorized at the back of the neck. After the animal was recovered from the anesthesia, blood sample was drawn as marked as ‘−5 min’ sample and drug formulation (in 0.5% sodium caboxymethyl cellulose, Na-CMC) was administered orally at the volume of 1 ml/kg body weight.
5 min after drug administration, blood sample was drawn as ‘0 min’ sample and glucose load at the dose of 1 g/kg body weight was administered orally. Blood samples were drawn subsequently at 5, 10, 15, 20, 30, 45, 60, 75, 90, 120, 180, 240 and 360 min time interval. Blood glucose is measured using glucometer.
Animals were divided into three groups: 1. Vehicle (0.5% Na-CMC) treated, 2. Compound no. 140 treated (22 mg/kg) and 3. Compound no. 142 treated (22 mg/kg).
Change in blood glucose at various time points was measured as percent increase or decrease from basal glucose level. Area under the curve (AUC) for glucose was calculated using WinNonlin software.

[3] = in vivo; cited from earlier work

Molecule: Cl.N#CC1CCCN1C(=O)N(N)C1CCCCC1 (stereo not drawn)
melting point: 160 to 162 °C (dec.)

Molecule: N#CC1CCCN1C(=O)C1CNCCN1.O=C(O)C(F)(F)F.O=C(O)C(F)(F)F (stereo not drawn) [Compound No. 1, 2-Cyano-1-(piperazine-2-yl)-carbonyl pyrrolidine bis-trifluoroacetate]
IC50 (Porcine DPP-IV): 47.6 ± 2.72 µM
melting point: 126 to 128 °C

Molecule: N#CC1CSCN1C(=O)CN(N)C1CCN(CC(=O)Nc2ccc(Cl)cn2)CC1 (stereo not drawn) [Compound No. 95]
Glucose excursions after a 1 gm/kg glucose load ([1]; 0 min): 0.0
AUC values mM * min of glucose excursion ([1]; 5 min before 1 gm/kg glucose load, Mean ± SD, P < 0.05 vs vehicle): 413.3±134.6 mM * min and 413.3 ± 134.6a mM * min
effect on hyperglycemia (in words) ([1]; nSTZ induced diabetic rats): controls hyperglycemia and brings the glucose levels to normoglycemic range
Glucose excursions after a 1 gm/kg glucose load ([1]; 10 min): 3.9
Glucose excursions after a 1 gm/kg glucose load ([1]; 20 min): 5.9
Glucose excursions after a 1 gm/kg glucose load ([1]; 30 min): 7.8
Glucose excursions after a 1 gm/kg glucose load ([1]; 45 min): 6.2
Glucose excursions after a 1 gm/kg glucose load ([1]; 60 min): 4.1
Glucose excursions after a 1 gm/kg glucose load ([1]; 75 min): 2.7
Glucose excursions after a 1 gm/kg glucose load ([1]; 90 min): 0.5
Glucose excursions after a 1 gm/kg glucose load ([1]; 120 min): −2.8
Glucose excursions after a 1 gm/kg glucose load ([1]; 150 min): −4.1
Glucose excursions after a 1 gm/kg glucose load ([1]; 180 min): −3.9
% Activity (antioxidant, DPPH) ([2]; Concentration 12.5 μM, 12.5 µM): 22.06%
% Activity (antioxidant, DPPH) ([2]; Concentration 25 μM, 25 µM): 36.87%
% Activity (antioxidant, DPPH) ([2]; Concentration 50 μM, 50 µM): 44.81%
% Activity (antioxidant, DPPH) ([2]; Concentration 100 μM, 100 µM): 65.52%

Molecule: CC[C@H](C)[C@H](N)C(=O)N1CCSC1 [Isoleucine thiazolidide]
glucose tolerance (in words) (zucker fatty rats): improved glucose tolerance

Molecule: N#Cc1ccc(NCCNCC(=O)N2CCC[C@H]2C#N)nc1 [NVP-DPP-728, 1-[-2-{(5-cyanopyridin-2-yl)amino}ethylamino]acetyl-2-cyano-(S)-pyrrolidine]
insulin secretion and glucose tolerance (in words) (DPP-IV): improves insulin secretion and glucose tolerance

Molecule: GLP-19-36
apparent half-life in the circulation [3]: 4 to 5 min

Now from value to molecule, other results behind:

melting point: 148 to 150 °C (dec.)
Molecule: CC(C)N(N)C(=O)N1CSCC1C#N.Cl (stereo not drawn)

melting point: 166 to 168 °C (dec.)
Molecule: Cl.N#CC1CSCN1C(=O)N(N)C1CCCCC1 (stereo not drawn)

IC50 (Porcine DPP-IV; trihydrochloride): 0.13 ± 0.03 µM
Molecule: Cl.Cl.Cl.N#Cc1ccc(NC(=O)CN2CCC(N(N)CC(=O)N3CSCC3C#N)CC2)nc1 (stereo not drawn) [compound 140, 3-[1-oxo-2-(1-(1-(2-oxo-2-(5-cyanopyridin-2-yl)aminoethyl)piperidin-4-yl))hydrazino]ethyl-4-cyano thiazolidine, trihydrochloride]
percent change in blood glucose from basal glucose level (nOSTZ diabetic rats; 0 min): 0.0 ± 0.0%
peak glucose levels (% from basal level) (nOSTZ diabetic rats): 99.19±17.87%
glucose tolerance (in words) (nOSTZ diabetic rats): improved glucose tolerance
percent change in blood glucose from basal glucose level (nOSTZ diabetic rats; 5 min): 21.97 ± 1.14%
percent change in blood glucose from basal glucose level (nOSTZ diabetic rats; 10 min): 49.11 ± 11.7%
percent change in blood glucose from basal glucose level (nOSTZ diabetic rats; 15 min): 64.67 ± 10.17%
percent change in blood glucose from basal glucose level (nOSTZ diabetic rats; 20 min): 69.62 ± 12.73%
percent change in blood glucose from basal glucose level (nOSTZ diabetic rats; 30 min): 90.29 ± 22.93%
percent change in blood glucose from basal glucose level (nOSTZ diabetic rats; 45 min): 99.19 ± 17.87%
percent change in blood glucose from basal glucose level (nOSTZ diabetic rats; 60 min): 82.76 ± 16.22%
percent change in blood glucose from basal glucose level (nOSTZ diabetic rats; 90 min): 34.3 ± 20.32%
percent change in blood glucose from basal glucose level (nOSTZ diabetic rats; 120 min): −21.87 ± 25.68%
percent change in blood glucose from basal glucose level (nOSTZ diabetic rats; 180 min): −45.71 ± 18.48%
percent change in blood glucose from basal glucose level (nOSTZ diabetic rats; 240 min): −48.6 ± 13.58%
percent change in blood glucose from basal glucose level (nOSTZ diabetic rats; 360 min): −49.76 ± 10.31%

IC50 (Porcine DPP-IV): 0.07 ± 0.01 µM
Molecule: N#CC1CSCN1C(=O)CN(N)C1CCN(CC(=O)Nc2ccc(S(N)(=O)=O)cc2)CC1 (stereo not drawn) [compound 142, 3-[1-oxo-2-(1-(1-(2-oxo-2-(4-aminosulphonylphenyl)aminoethyl)piperidin-4-yl))hydrazino]ethyl-4-cyano thiazolidine, dihydrochloride]
percent change in blood glucose from basal glucose level (nOSTZ diabetic rats; 0 min): 0.0 ± 0.0%
peak glucose levels (% from basal level) (nOSTZ diabetic rats): 87.25±15.61%
glucose tolerance (in words) (nOSTZ diabetic rats): improved glucose tolerance
percent change in blood glucose from basal glucose level (nOSTZ diabetic rats; 5 min): 9.79 ± 4.13%
percent change in blood glucose from basal glucose level (nOSTZ diabetic rats; 10 min): 29.41 ± 3.4%
percent change in blood glucose from basal glucose level (nOSTZ diabetic rats; 15 min): 46.51 ± 5.23%
percent change in blood glucose from basal glucose level (nOSTZ diabetic rats; 20 min): 56.51 ± 4.33%
percent change in blood glucose from basal glucose level (nOSTZ diabetic rats; 30 min): 77.93 ± 12.12%
percent change in blood glucose from basal glucose level (nOSTZ diabetic rats; 45 min): 87.25 ± 15.61%
percent change in blood glucose from basal glucose level (nOSTZ diabetic rats; 60 min): 67.33 ± 11.49%
percent change in blood glucose from basal glucose level (nOSTZ diabetic rats; 90 min): 67.45 ± 9.8%
percent change in blood glucose from basal glucose level (nOSTZ diabetic rats; 120 min): 31.4 ± 8.51%
percent change in blood glucose from basal glucose level (nOSTZ diabetic rats; 180 min): −48.05 ± 5.75%
percent change in blood glucose from basal glucose level (nOSTZ diabetic rats; 240 min): −58.87 ± 6.10%
percent change in blood glucose from basal glucose level (nOSTZ diabetic rats; 360 min): −63.57 ± 4.77%
